Patent publication US20260337189A1, “Cryptolepine Salt Derivative, Preparation Method, and Use Thereof” (ZHEJIANG XINNONG CHEMICAL CO., LTD., priority 2023, published 2026)

Experiments:
[1] = tested on: tobacco Mosaic virus (TMV); experiment: Live protection function against tobacco Mosaic virus (TMV); format: in vivo; settings: for Relative inhibition rate, live protection function: 500 mg/L, tobacco Xanthi nc, sprayed 24 h before inoculation, virus 10 μg/mL, 3 days; for inhibition at 500 µg/mL: Tobacco mosaic virus, read-out: Relative inhibition rate, live protection function
Method: (§1) Determination of anti-tobacco Mosaic virus (TMV) activity by the following procedure:
(§2) After weighing, cryptolepine salt derivative, ningnanmycin and the original drug of ribavirin were dissolved in DMF to obtain 1×10^5 μg/mL mother solution, and then diluted to the required concentration with 1%. Tween 80 aqueous solution.
(§3) Select the 3-5 leaf stage of tobacco Xanthi nc with uniform growth, spray the whole plant, repeat each treatment 3 times, and set 1%. Tween80 aqueous solution as control. 24 h later, the leaf surface was coated with emery (500 mesh), the disease venom was dipped with a brush, and the whole leaf surface was gently rubbed twice along the direction of the branch pulse by using the brush, the leaf was supported by palm of hand, the virus concentration was 10 μg/mL, and the leaf was washed by water after inoculation. After 3 days, the number of disease spots was recorded and the prevention and control effect was calculated.
(§4) Relative inhibition rate (%)=[(number of dead spots of control group-number of dead spots of test sample group)/number of dead spots of control group]×100%.

[2] = tested on: tobacco Mosaic virus (TMV); experiment: Live treatment effect against tobacco Mosaic virus (TMV); format: in vivo; settings: 500 mg/L, tobacco Xanthi nc, sprayed after inoculation, virus 10 μg/mL, 3 days; for inhibition at 500 µg/mL: Tobacco mosaic virus, 72 h, read-out: Relative inhibition rate, live treatment effect
Method: as §1, §2
(§5) Select the 3-5 leaf stage of tobacco Xanthi nc with uniform growth, use a brush to vaccinate the virus in the whole leaf, the virus concentration is 10 μg/mL, and the leaf was washed with running water after inoculation. After the leaves were dried, the whole plant was sprayed with test sample, repeated 3 times every treatment, and 1%. Tween 80 aqueous solution was set as control. After 3 days, the number of disease spots was recorded and the prevention and control effect was calculated.
as §4

[3] = tested on: tobacco Mosaic virus (TMV); experiment: Living passivation activity test against tobacco Mosaic virus (TMV); format: in vivo; settings: 500 mg/L, tobacco Xanthi nc, sample mixed with virus juice 30 min, virus 20 μg/mL, 3 days; for inhibition at 500 µg/mL: Tobacco mosaic virus, read-out: Relative inhibition rate, living passivation activity test
Method: as §1, §2
(§6) Select the 3-5 leaf stage of tobacco Xanthi nc with uniform growth, mix the test sample agent with the same volume of virus juice to passivate for 30 min, friction inoculation, virus concentration 20 μg/mL, the leaf was washed with running water after inoculation, repeat 3 times, set 1%. Tween 80 aqueous solution as control. 3 days later, the number of disease spots was calculated.
as §4
(§7) Anti-tobacco Mosaic virus passivation activity test of all compounds was at a treatment dose of 500 μg/mL. The positive control was the commercial anti-plant virus agent viriazole.

rice sheath blight = experiment: Test of resistance to rice sheath blight (bactericidal activity test); format: in vivo; settings: for Resistance to rice sheath blight: 400 mg/L, rice seedlings, sprayed 24 h before inoculation, 6 days after inoculation, visual inspection; for bactericidal activity against rice sheath blight: live pot test, Table 5, 400 mg/L
Method: Bactericidal activity test, the determination procedure is as follows:
Test of resistance to rice sheath blight: Select uniformly growing rice seedlings and spray them on the leaves at the set concentration, set a water spraying group as blank control, every treatment was repeated twice. After 24 h, the rice seedlings were inoculated with rice sheath blight strains and placed at room temperature (25±4° C.) for normal management after inoculation. The prevention and control effect was investigated by visual inspection 6 days after inoculation.

[4] = tested on: tobacco Mosaic virus (TMV); experiment: Anti-tobacco Mosaic virus (TMV) activity, overall comparison of Test Example 1; format: in vivo; settings: 500 μg/mL; Table 4
Method: as §1, §2, §3, §5, §6, §4, §7

Plasmodium falciparum = settings: cited from earlier work

| Compound | Relative inhibition rate, live protection function [1] [%] | Relative inhibition rate, live treatment effect [2] [%] | Relative inhibition rate, living passivation activity test [3] [%] | Resistance to rice sheath blight (rice sheath blight) [%] | bactericidal activity against rice sheath blight (rice sheath blight) | inhibition at 500 µg/mL [1] [%] | inhibition at 500 µg/mL [2] [%] | inhibition at 500 µg/mL [3] [%] | TMV activity compared with ribavirin [4] | anti-TMV activity compared with commercial Ningnanmycin [4] | activity against Plasmodium falciparum compared with Chloroquine (Plasmodium falciparum) |
| --- | --- | --- | --- | --- | --- | --- | --- | --- | --- | --- | --- |
| Cc1ccc(S(=O)(=O)n2c3ccc(F)cc3c3c2cc2ccccc2[n+]3C)cc1 [Example 4] | 21.6 ± 3.4 | 18.6 ± 1.2 | 14.1 ± 1.3 | 60 ± 0 | more than 50% |  |  |  |  |  |  |
| Cc1ccc(S(=O)(=O)n2c3ccc(I)cc3c3c2cc2ccccc2[n+]3C)cc1.[Cl-] [Example 7] |  |  |  | 40 ± 0 |  | 44.5 ± 0.4 | 43 ± 3.5 | 47.7 ± 3.1 | better TMV activity than the ribavirin |  |  |
| CCCCCNc1c2ccccc2[n+](C)c2c1[nH]c1ccccc12 [Example 24] |  |  |  | 30 ± 0 |  | 36.9 ± 3.7 | 30.3 ± 0.8 | 35.2 ± 1 |  |  |  |
| CCCCCCCCCCCCNc1c2ccccc2[n+](C)c2c1[nH]c1ccccc12 [Example 25] |  |  |  | 20 ± 0 |  | 27.3 ± 3 | 22.1 ± 1.1 | 35.1 ± 0.1 |  |  |  |
| C[n+]1c2ccccc2c(NC2CCCC2)c2[nH]c3ccccc3c21 [Example 29] | 38.6 ± 4.6 | 36.5 ± 2.3 | 30.5 ± 0.9 | 30 ± 0 |  |  |  |  |  |  |  |
| C[n+]1c2ccccc2c(NCCCN)c2[nH]c3ccccc3c21.[I-] [Example 33] |  |  |  | 40 ± 0 |  | 57.9 ± 4.6 | 51.7 ± 3.6 | 49.8 ± 3.1 | better TMV activity than the ribavirin | comparable to that of commercial Ningnanmycin |  |
| C[n+]1c2ccccc2c(NCC2CCNCC2)c2[nH]c3ccccc3c21.[I-] [Example 42] |  |  |  | 25 ± 5 |  | 28.1 ± 3 | 30.2 ± 2.1 | 25.1 ± 0.2 |  |  |  |
| C[n+]1c2ccccc2c(NCCCN2CCCCC2)c2[nH]c3ccccc3c21 [Example 47] | 36.4 ± 2.8 | 33.3 ± 2.0 | 35.7 ± 0.3 | 45 ± 5 | more than 50% |  |  |  |  |  |  |
| Cn1c2c3ccccc3nc-2cc2ccccc21 [cryptolepine] |  |  |  |  |  |  |  |  |  |  | comparable activity against Plasmodium falciparum to Chloroquine |
